# Tested on: AB527-expressing cells
# Experiment: Effect of valeric acid on cell growth and antibody production
# Type: cell-based, Chinese Hamster
# Conditions: for Maximum Viable Cell Density: 14 days; for Doubling Time (DT): in h (unit assumed)
# Protocol: To determine the effect of valeric acid on cell growth, AB527-expressing cells were cultured in GIBCO-CD-CHO complete medium supplemented with valeric acid to a concentration of 0 mM, 1 mM, 2 mM, 4 mM, or 8 mM. Cells were cultured for 14 days and viable cell density, percent viability, and integral viable cell density were determined using a CEDEX automated cell counter on days 0, 3, 5, 7, 10, 13, and 14. Antibody production was determined for each group of cultured cells on day 14 by protein A HPLC.
smiles,measurement,setting,value
"CCCCC(=O)O [Valeric Acid, valeric acid]",Integral of Viable Cell Density (IVC),1 mM valeric acid,6.74E+7 cells · day/mL
same,Specific Antibody Production Rate (Qp),1 mM valeric acid,58.44 mg/10^9 cells/day
same,Maximum Viable Cell Density,1 mM valeric acid,94.60 10^5/mL
same,Final Antibody Titer,"1 mM valeric acid, day 14",4137.1 mg/L
same,antibody titer higher than that of the control culture,"1 mM valeric acid, day 14",36%
same,Final Antibody Titer,"1 mM valeric acid, day 14, listed as valeric acid",4137 mg/L
same,Doubling Time (DT),1 mM valeric acid,24.17
same,Integral of Viable Cell Density (IVC),2 mM valeric acid,6.55E+7 cells · day/mL
same,Specific Antibody Production Rate (Qp),2 mM valeric acid,54.45 mg/10^9 cells/day
same,Maximum Viable Cell Density,2 mM valeric acid,81.00 10^5/mL
same,Final Antibody Titer,"2 mM valeric acid, day 14",3706.7 mg/L
same,Doubling Time (DT),2 mM valeric acid,24.17
same,Integral of Viable Cell Density (IVC),4 mM valeric acid,6.72E+7 cells · day/mL
same,Specific Antibody Production Rate (Qp),4 mM valeric acid,52.24 mg/10^9 cells/day
same,Maximum Viable Cell Density,4 mM valeric acid,77.40 10^5/mL
same,Final Antibody Titer,"4 mM valeric acid, day 14",3600.1 mg/L
same,Doubling Time (DT),4 mM valeric acid,24.17
same,Integral of Viable Cell Density (IVC),8 mM valeric acid,4.76E+7 cells · day/mL
same,Specific Antibody Production Rate (Qp),8 mM valeric acid,56.16 mg/10^9 cells/day
same,Maximum Viable Cell Density,8 mM valeric acid,54.40 10^5/mL
same,maximum cell density,"8 mM valeric acid, at day 7",5.4×10^6 cells/mL
same,viability,"8 mM valeric acid, at day 7",67.4%
same,Final Antibody Titer,"8 mM valeric acid, day 14",2760.4 mg/L
same,Doubling Time (DT),8 mM valeric acid,24.17

# Source: US8956832B2, “Cells expressing anti-GD2 antibodies and methods related thereto” (Morphotek, Inc., priority 2008, dated 2015)
